These results are taken from patent US20260364214A1, “MULTIVALENT FIBROBLAST ACTIVATION PROTEIN LIGANDS FOR TARGETED DELIVERY APPLICATIONS” (Philochem AG, priority 2022, published 2026).

For one test, the target named is T1, recombinant hFAP (Homo sapiens, UniProt Q12884).
T1 sequence (Q12884 26-760 limits assumed): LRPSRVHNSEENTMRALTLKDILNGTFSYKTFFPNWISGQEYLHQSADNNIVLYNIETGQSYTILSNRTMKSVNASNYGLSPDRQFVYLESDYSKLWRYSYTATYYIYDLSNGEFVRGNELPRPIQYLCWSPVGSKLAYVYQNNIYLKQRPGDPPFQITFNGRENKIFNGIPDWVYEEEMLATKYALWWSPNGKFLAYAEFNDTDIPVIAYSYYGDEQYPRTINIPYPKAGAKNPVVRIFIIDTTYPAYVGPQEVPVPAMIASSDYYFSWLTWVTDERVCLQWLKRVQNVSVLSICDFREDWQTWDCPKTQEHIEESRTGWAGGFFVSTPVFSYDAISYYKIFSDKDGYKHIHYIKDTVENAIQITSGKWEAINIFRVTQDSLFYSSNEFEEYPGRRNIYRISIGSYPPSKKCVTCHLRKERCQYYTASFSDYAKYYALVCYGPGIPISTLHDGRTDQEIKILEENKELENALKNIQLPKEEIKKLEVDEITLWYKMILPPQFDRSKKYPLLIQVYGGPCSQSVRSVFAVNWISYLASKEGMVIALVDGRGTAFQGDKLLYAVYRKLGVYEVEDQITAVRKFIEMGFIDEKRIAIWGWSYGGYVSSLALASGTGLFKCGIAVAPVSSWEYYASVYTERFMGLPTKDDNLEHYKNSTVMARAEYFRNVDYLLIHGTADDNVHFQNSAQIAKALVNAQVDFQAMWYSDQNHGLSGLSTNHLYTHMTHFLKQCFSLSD
Description: hFAP inhibition assay (Z-Gly-Pro-AMC substrate). Format: biochemical. The settings on record: Z-Gly-Pro-AMC 20 μM; protein 66 μM; pH 7.4; room temperature. The procedure:
(§1) Enzymatic activity of hFAP on the Z-Gly-Pro-AMC substrate was measured at room temperature on a microtiter plate reader, monitoring the fluorescence at an excitation wavelength of 360 nm and an emission wavelength of 465 nm. The reaction mixture contained substrate (20 μM), protein (66 μM, constant), assay buffer (50 mM Tris, 100 mM NaCl, and 1 mM EDTA, pH=7.4), and inhibitors with serial dilution from 167 nM to 80 fM, 1:2 in a total volume of 20 μL. Experiments were performed in triplicate, and the mean fluorescence values were fitted using Prism 7. The value is defined as the concentration of inhibitor required to reduce the enzyme activity by 50% after addition of the substrate [FIG. 1 and FIG. 8].
According to the same procedure, further comparative inhibition assays with trimeric binders having inter alia different lengths of linker group B and/or different payload groups C were performed with compounds Tri-ESV6-ValCit-MMAE (14), Tri-ESV6-linker-DOTAGA (13) and diastereoisomers of Tri-ESV6-DOTAGA (11, 12) [FIG. 18]. Comparative hFAP inhibition assays with tetravalent binders 10 and 29 were also performed [FIG. 20].
as §1, with “substrate.” for “substrate [FIG. 1 and FIG. 8].”
as §1, with “e) Inhibition assay with Tri-ESV6-DOTAGA, Tetra-ESV6-DOTAGA, Hexa-ESV6-DOTAGA, Octa-ESV6-DOTAGA, ESV6-L-DOTAGA and BI-ESV6-L-DOTAGA. Enzymatic” for “Enzymatic”, “substrate.” for “substrate [FIG. 1 and FIG. 8].”
On to `N#C[C@@H]1CC(F)(F)CN1C(=O)CNC(=O)c1ccnc2c(NC(=O)CCC(=O)NCCOCCOCCC(=O)NCCNC(=O)CCOCC(COCCC(=O)NCCNC(=O)CCOCCOCCNC(=O)CCC(=O)Nc3cccc4c(C(=O)NCC(=O)N5CC(F)(F)C[C@H]5C#N)ccnc34)(COCCC(=O)NCCNC(=O)CCOCCOCCNC(=O)CCC(=O)Nc3cccc4c(C(=O)NCC(=O)N5CC(F)(F)C[C@H]5C#N)ccnc34)NC(=O)CCC(C(=O)O)N3CCN(CC(=O)O)CCN(CC(=O)O)CCN(CC(=O)O)CC3)cccc12` (stereo partly shown) [Tri-ESV6-PEG2-DOTAGA], for which the IC50 was determined as 0.038 nM. The same measure, in the same setting: under `N#C[C@@H]1CC(F)(F)CN1C(=O)CNC(=O)c1ccnc2c(NC(=O)CCC(=O)NCCOCCOCCOCCOCCC(=O)NCCNC(=O)CCOCC(COCCC(=O)NCCNC(=O)CCOCCOCCOCCOCCNC(=O)CCC(=O)Nc3cccc4c(C(=O)NCC(=O)N5CC(F)(F)C[C@H]5C#N)ccnc34)(COCCC(=O)NCCNC(=O)CCOCCOCCOCCOCCNC(=O)CCC(=O)Nc3cccc4c(C(=O)NCC(=O)N5CC(F)(F)C[C@H]5C#N)ccnc34)NC(=O)CCC(C(=O)O)N3CCN(CC(=O)O)CCN(CC(=O)O)CCN(CC(=O)O)CC3)cccc12` (stereo partly shown) [Tri-ESV6-PEG4-DOTAGA] stands 0.126 nM. On the same count and under the same terms, under `N#C[C@@H]1CC(F)(F)CN1C(=O)CNC(=O)c1ccnc2c(NC(=O)CCC(=O)NCCOCCOCCOCCOCCOCCOCCC(=O)NCCNC(=O)CCOCC(COCCC(=O)NCCNC(=O)CCOCCOCCOCCOCCOCCOCCNC(=O)CCC(=O)Nc3cccc4c(C(=O)NCC(=O)N5CC(F)(F)C[C@H]5C#N)ccnc34)(COCCC(=O)NCCNC(=O)CCOCCOCCOCCOCCOCCOCCNC(=O)CCC(=O)Nc3cccc4c(C(=O)NCC(=O)N5CC(F)(F)C[C@H]5C#N)ccnc34)NC(=O)CCC(C(=O)O)N3CCN(CC(=O)O)CCN(CC(=O)O)CCN(CC(=O)O)CC3)cccc12` (stereo partly shown) [Tri-ESV6-PEG6-DOTAGA] stands 0.273 nM; under `N#C[C@@H]1CC(F)(F)CN1C(=O)CNC(=O)c1ccnc2c(NC(=O)CCC(=O)NCCOCCOCCOCCOCCOCCOCCOCCOCCC(=O)NCCNC(=O)CCOCC(COCCC(=O)NCCNC(=O)CCOCCOCCOCCOCCOCCOCCOCCOCCNC(=O)CCC(=O)Nc3cccc4c(C(=O)NCC(=O)N5CC(F)(F)C[C@H]5C#N)ccnc34)(COCCC(=O)NCCNC(=O)CCOCCOCCOCCOCCOCCOCCOCCOCCNC(=O)CCC(=O)Nc3cccc4c(C(=O)NCC(=O)N5CC(F)(F)C[C@H]5C#N)ccnc34)NC(=O)CCC(C(=O)O)N3CCN(CC(=O)O)CCN(CC(=O)O)CCN(CC(=O)O)CC3)cccc12` (stereo partly shown) [Tri-ESV6-PEG8-DOTAGA], 1.1 nM.

The test is the same for the next values; noted with them: recombinant hFAP.
With `N#C[C@@H]1CC(F)(F)CN1C(=O)CNC(=O)c1ccnc2c(NC(=O)CCC(=O)NCCCCC(NC(=O)CCC(=O)Nc3cccc4c(C(=O)NCC(=O)N5CC(F)(F)C[C@H]5C#N)ccnc34)C(=O)NCCNC(=O)CCC(C(=O)O)N3CCN(CC(=O)O)CCN(CC(=O)O)CCN(CC(=O)O)CC3)cccc12` (stereo partly shown) [Bi-ESV6-DOTAGA, reference compound], the “IC50 / inhibitory activity, comparison in words” value is listed as “IC50 comparable to the ones of original derivatives”. For `N#C[C@@H]1CC(F)(F)CN1C(=O)CNC(=O)c1ccnc2c(NC(=O)CCC(=O)NCCNC(=O)CCOCCNC(=O)CCC(C(=O)O)N3CCN(CC(=O)O)CCN(CC(=O)O)CCN(CC(=O)O)CC3)cccc12` (stereo partly drawn) [ESV6-L-DOTAGA], the “IC50 / inhibitory activity, comparison in words” value is listed as “IC50 comparable to the ones of original derivatives”. Same read-out and setting: under `N#C[C@@H]1CC(F)(F)CN1C(=O)CNC(=O)c1ccnc2c(NC(=O)CCC(=O)NCCNC(=O)CCOCC(COCCC(=O)NCCNC(=O)CCC(=O)Nc3cccc4c(C(=O)NCC(=O)N5CC(F)(F)C[C@H]5C#N)ccnc34)NC(=O)CCOCC(COCCC(=O)NC(COCCC(=O)NCCNC(=O)CCC(=O)Nc3cccc4c(C(=O)NCC(=O)N5CC(F)(F)C[C@H]5C#N)ccnc34)COCCC(=O)NCCNC(=O)CCC(=O)Nc3cccc4c(C(=O)NCC(=O)N5CC(F)(F)C[C@H]5C#N)ccnc34)NC(=O)CCC(C(=O)O)N3CCN(CC(=O)O)CCN(CC(=O)O)CCN(CC(=O)O)CC3)cccc12` (stereo partly shown) [Tetra-ESV6-DOTAGA] stands “directly proportional to the valency until Tetra-ESV6-DOTAGA”.
